# Assays:
# [1] = system: patients with Peripheral vertigo; experiment: Same clinical trial: tolerability; format: in vivo, human; conditions: 20 mg orally three times a day for 28 days
# From the text: (§1) The current study was designed as an open label, two-treatment arm, active comparator controlled, Clinical trial in patients with Peripheral vertigo. This study involved a screening phase, randomization and treatment phase as mentioned below: • Screening phase (Visit 1): −14 to −1 day • Baseline visit and day of randomization (Visit 2): Day 0/1 • Treatment phase: Day 1 to Day 28 • End of treatment (Visit 4): Day 29±2 days
# (§2) Patients with Peripheral vertigo, meeting the mentioned eligibility criteria were identified and shortlisted patients underwent screening within 14 days prior to randomization. A total of 16 patients were randomized in the ratio of 3:1 to receive the test and active comparator products (12 patients received test product and 4 patients received active comparator product). Test product was consumed as 20 mg Levocloperastine orally three times a day for 28 days. Active comparator (standard of care) was consumed by the patients as per the investigator's sole discretion and medical judgement. The standard of care treatment included Betahistine 16 mg tablets three times daily OR Betahistine 16 mg tablets three times daily plus Acetazolamide 125 mg tablets two time daily OR Cinnarizine 25 mg tablets three times daily which was given to patient.
# [2] = system: patients with Peripheral vertigo; experiment: Same clinical trial: composite score of vegetative concomitant symptoms (nausea, vomiting, sweating, tachycardia), 5-point VAS; format: in vivo, human
# From the text: as §1, §2
# Additionally, mean change in composite score of vegetative concomitant symptoms from baseline score was compared between two treatment arms. The absolute data and mean changes from baseline data are presented below in Table 2.
# [3] = system: patients with Peripheral vertigo; experiment: Open label, active comparator controlled clinical trial: MVS score (severity of vertigo symptoms); format: in vivo, human
# From the text: The MVS score, a 12-item composite score to measure the severity of vertigo symptoms, is defined as the mean intensity of 6 (unprovoked) vertigo symptoms (dysstasia and walking unsteadiness, staggering, rotary sensation, tendency to fall, lift sensation, blackout) and vertigo in consequence of 6 triggering factors [change of position (lying), bowing, getting up, driving by car/train, head movements (inclination, twist), eye movement]. The intensity of each of the 12 single symptoms is rated by the patients by means of a 5-point VAS (0=not present, 1=moderate, 2=medium, 3=strong, 4=very strong). A mean MVS serving as a measure of vertigo intensity, will be calculated by adding the scores on all 12 vertigo symptoms and dividing by 12. The scale is rated by patients directly.
# as §1, §2
# MVS Score: Mean change in MVS score from baseline score was compared between two treatment arms.
# [4] = doses up to 450-fold higher than the therapeutic doses; cited from earlier work
# [5] = 20 mg orally three times a day for 28 days
# [6] = 7 days after treatment onset [Interim visit: Day 7 + 3]
# [7] = 28 days after treatment onset [end of treatment: Day 29 ± 2]
compound,measurement,setting,value
Clc1ccc([C@@H](OCCN2CCCCC2)c2ccccc2)cc1 (racemic) [Levocloperastine],Tolerability,[1],well tolerability in all patients
same,Alleviation of vegetative concomitant symptoms versus standard of care,[2]; [5],statistically better in alleviating the vegetative concomitant symptoms than the standard of care treatment
same,"Score of vegetative concomitant symptoms, Absolute data, Mean ± SD",[2]; [6],0.6 ± 0.73
same,"Score of vegetative concomitant symptoms, Change as %",[2]; [6],−46.15%
same,"Score of vegetative concomitant symptoms, Change from baseline, Mean ± SD",[2]; [6],−0.6 ± 0.81
same,"Score of vegetative concomitant symptoms, Absolute data, Mean ± SD",[2]; [7],0.2 ± 0.47
same,"Score of vegetative concomitant symptoms, Change as %",[2]; [7],−84.62%
same,"Score of vegetative concomitant symptoms, Change from baseline, Mean ± SD",[2]; [7],−1.1 ± 0.98
same,"Score of vegetative concomitant symptoms, Absolute data, Mean ± SD",[2]; Baseline,1.3 ± 1.05
same,Duration of treatment for comparable improvement in vegetative concomitant symptoms severity,"[2]; human, in vivo",about 7 days
same,Efficacy on primary efficacy endpoint MVS score versus standard of care,[3]; [5],equally efficacious in comparison to standard of care treatment
same,"MVS Score, Change from baseline, Mean ± SD",[3]; A/28 Days [Day 29 ± 2],−1.1 ± 0.45
same,"MVS Score, Mean ± SD",[3]; A/28 Days [Day 29 ± 2],1.1 ± 0.58
same,"MVS Score, Change as %",[3]; A/28 Days [Day 29 ± 2] vs baseline,−50.00%
same,"MVS Score, Mean ± SD",[3]; Baseline (Day 0/1),2.2 ± 0.29
same,"MVS Score, Change from baseline, Mean ± SD",[3]; Interim visit [Day 7 + 3],−0.7 ± 0.33
same,"MVS Score, Mean ± SD",[3]; Interim visit [Day 7 + 3],1.5 ± 0.49
same,"MVS Score, Change as %",[3]; Interim visit [Day 7 + 3] vs baseline,-31.8%
same,Sedation,[4],did not induce any clinically relevant sedation
